Reference: publication PMC6158189, “A pharmacological probe identifies cystathionine β-synthase as a new negative regulator for ferroptosis” (Cell Death & Disease, 2018)

Experiments:
HepG2 cells [1] = assay: colony formation (crystal violet); format: cell-based, human; details: 24 h treatment
Source text: Figure S12. CH004 inhibits the proliferation of cells via specifically targeting hCBS. (A-B) Dose-dependent curves of CH004 on the cell viability of CBS-stably-expressed HEK293T (A) or CBS-knockdown cells (B). Percentages of cell viability of CH004 obtained in Figure 4b were fitted to the non-linear equation using GraphPad Prism 5 to get the IC50 values of CH004 in respective cell lines (●, 293T-CBS WT cells; ○, 293T-EV; ▲, 293T-shCBS; △, 293T-shNT). Means ± SDs (n=3). […] HEK293T cells stably expressing of the lentiviral shRNA targeting CBS (shCBS) or control shRNA (shNT) were seeded at the density of ~ 3,000 cells per well in 96-well plates and the cell images in the bright field were acquired at indicated times by Image Xpress Micro® XLS (Molecular Devices, Sunnyvale, CA) under 10 × objective lens. Representative images of two independent experiments (n = 6 for each experiment) are shown in C. The cell numbers of images under 4 × objective lens of one representative experiment were calculated by Image Xpress Software and the data is shown in D. Means ± SDs (n=6). […] HepG2 cells were seeded in a 96-well plate at a density of 20000 cells per well and cultured for 24 h before treatment with indicated concentrations of CH004 for another 24 h. The colonies were stained with crystal violet and quantified by measuring the absorbance at 590 nm. […] Means ± SDs (n=3). […]

HepG2 cells [2] = assay: lipid ROS (BODIPY 581/591 C11, flow cytometry); format: cell-based, human; details: 24 h, HepG2
Method: To detect lipid peroxidation upon treatment with CH004, HepG2 cells or mouse embryonic fibroblasts (MEF) were seeded in 12-well plates with ~ 1.8 × 10^5 cells per well for 24 h. After treatment with the inhibitor for another 24 h, cells were stained with BODIPY® 581/591 C11 (Invitrogen) for 1 h at a final concentration of 2 μM at 37 °C[57]. The cells were then resuspended in an appropriate amount of PBS after being washed once with PBS. Lipid peroxidation, i.e., lipid ROS, was analyzed by detection of the fluorescence using an LSR Fortessa flow cytometer. The data were recorded at 530/30 nm (green fluorescent) and 670/30 nm (red fluorescent) wavelengths after excitation at 488 nm. A minimum of 20000 events was used for the analysis. All the experiments were independently repeated twice in triplicate.
Figure S15. The mode of actions for CH004 in cells. […] Indicated HEK293T stable cell lines were treated with CH004 at a concentration of 10 µM for 24 h, and the cell viability was then measured using the CellTiter96® Aqueous One Solution Cell Proliferation Assay (Promega). Means ± SDs (n=3). (B-C) CH004 or erastin triggers ferroptosis in mouse embryonic fibroblasts (MEF). WT MEF cells were treated with CH004 or erastin at indicated concentrations in the presence or the absence of 500 µM DFO for 24 h before measuring the lipid ROS with 2 μM BODIPY® 581/591 C11 (Materials and methods). […] Erastin at micromolar concentrations were incubated with HepG2 cells for 24 h before measuring the lipid ROS (see above and Materials and methods). […] Means ± SDs (n=3). […] CH004 or erastin at a concentration of 20 µM was incubated with HepG2 cells for 48 h or 72 h in the presence or the absence of 100 µM DFO. The cell viability was accordingly quantified using the CellTiter96® Aqueous One Solution Cell Proliferation Assay (Promega) and the results were shown as percentages of DMSO (control, 100%). Means ± SDs (n=3). All the experiments were independently repeated at least twice and one representative result is present. Table S1 The inhibitory effects of CH004 on purified hCBS, hCSE and hDDC.

Cn1nc(Cc2ccccc2)nc2c(=O)n(C)c(=O)nc1-2 [CH004, 3-benzyl-1,6-dimethylpyrimido[5,4-e][1,2,4]triazine-5,7(1H,6H)-dione]
IC50 (HepG2 cells [1]): ~8 µM | IC50 (HepG2 cells [1]; Homo sapiens, HepG2, 24 h): ~7.9 µM | increase of lipid ROS (HepG2 cells [2]; 10 μM): ~ 250% | lipid peroxidation (lipid ROS), dose dependence (HepG2 cells [2]): dose-dependently increased
